From patent US9937161B2, “Combinatorial compositions and methods for treatment of melanoma” (THE GENERAL HOSPITAL CORPORATION, priority 2013, dated 2018)

How the values were obtained:
MEK1/2 = details: cited from earlier work
melanoma cells (M14) = assay: Cell number, mitochondrial inhibitors combined with PLX4720
Protocol: (§1) Melanoma cell were treated for 24 h with PLX4720 then mitochondrial uncoupler for 48 h, prior to estimation of cell number.
as §1
Cell number was calculated using the CYQUANT® assay (INVITROGEN™) or crystal violet staining. Lactate measurements were done using the Lactate Assay (BioVision or SIGMA®) per manufacturer's protocols. Indicated cell lines were plated in complete media overnight. Media was changed to serum free-media to avoid interference with the assay for 16 h with either PLX4720 (3 μM) or PLX4032 (1 μM) or vehicle control prior to harvesting cells and measurement of lactate. Results were normalized to cell number. All assays were performed in logarithmically growing cells.

MEK = details: cited from earlier work
melanoma cell lines [1] = assay: PGC1α mRNA by quantitative PCR, MEK inhibitor; details: 10 nM, 24 h; all cell lines tested, including BRAF wild-type MeWo
[2] = test system: TRPM1 and other direct targets of MITF; assay: Expression of MITF targets (microarray, qtPCR); details: published microarrays and qtPCR
[3] = test system: 12 breast, lung, colon and melanoma cell lines; assay: Public microarray (GSE10086) of PGC1α mRNA; details: 10 nM, 24 h; p<0.0001
melanoma cell lines [4] = assay: phospho-ERK Western blot, MEK inhibitor; format: cell-based; details: 10 nM, 24 h; all cell lines tested, including BRAF wild-type MeWo
Protocol: Whole cell lysates were prepared in lysis buffer supplemented with protease and phosphatase inhibitors (Roche). Equal amounts of protein were resolved by electrophoresis on gradient gels (Bio-Rad).
Antibodies used were as follows: MITF (C5 hybridoma); PGC1α (Calbiochem); α-tubulin (clone DM1A, Sigma); GAPDH, phospho-ERK1/2, and ERK1/2 (Cell Signaling Technology). Melanoma biopsies prior and during treatment were sectioned, embedded in paraffin and stained with the phospho-ERK1/2 antibody (Cell Signaling Technology). PLX4720 was used at 1 μM concentration in all assays, whereas control samples were treated with an equal volume of DMSO.

melanoma cell lines [5] = assay: Gene set enrichment analysis of melanoma cell lines treated with PD0325901
[6] = test system: BRAF-mutant non-melanomas; assay: Gene set enrichment analysis of non-melanomas treated with PD0325901
KIT mutated melanoma = details: case reports, retrospective and phase II studies; cited from earlier work
apoptosis = assay: Apoptosis, tigecycline with PLX4720; format: cell-based; details: combination with PLX4720
[7] = PD0325901 treated melanoma cell lines (n = 5), gene set size 15
[8] = PD0325901 treated melanoma cell lines (n = 5), gene set size 17
[9] = PD0325901 treated melanoma cell lines (n = 5), gene set size 19
[10] = PD0325901 treated melanoma cell lines (n = 5), gene set size 20
[11] = PD0325901 treated melanoma cell lines (n = 5), gene set size 21
[12] = PD0325901 treated melanoma cell lines (n = 5), gene set size 22
[13] = PD0325901 treated melanoma cell lines (n = 5), gene set size 24
[14] = PD0325901 treated melanoma cell lines (n = 5), gene set size 28
[15] = PD0325901 treated melanoma cell lines (n = 5), gene set size 44
[16] = PD0325901 treated melanoma cell lines (n = 5), gene set size 49
[17] = PD0325901 treated melanoma cell lines (n = 5), gene set size 55
[18] = PD0325901 treated melanoma cell lines (n = 5), gene set size 76
[19] = PD0325901 treated melanoma cell lines (n = 5), gene set size 107
[20] = PD0325901, non-melanomas (N=7), gene set size 16
[21] = PD0325901, non-melanomas (N=7), gene set size 17
[22] = PD0325901, non-melanomas (N=7), gene set size 19
[23] = PD0325901, non-melanomas (N=7), gene set size 21
[24] = PD0325901, non-melanomas (N=7), gene set size 22
[25] = PD0325901, non-melanomas (N=7), gene set size 27
[26] = PD0325901, non-melanomas (N=7), gene set size 29
[27] = PD0325901, non-melanomas (N=7), gene set size 53
[28] = PD0325901, non-melanomas (N=7), gene set size 55
[29] = PD0325901, non-melanomas (N=7), gene set size 65
[30] = PD0325901, non-melanomas (N=7), gene set size 66
[31] = PD0325901, non-melanomas (N=7), gene set size 73

Cc1cc(C(=O)NOCCO)c(Nc2ccc(I)cc2F)n(C)c1=O [AZD8330]
IC50 (MEK1/2): 7 nM

N#CC(C#N)=NNc1cccc(Cl)c1 [CCCP]
sensitivity of cells to the agent alone (melanoma cells (M14); M14 cells, 72 hrs): relatively insensitive

O=C(NOC[C@H](O)CO)c1ccc(F)c(F)c1Nc1ccc(I)cc1F [PD0325901]
PGC1α mRNA (melanoma cell lines [1]): induction | expression of TRPM1 and other direct targets of MITF [2]: induced | PGC1α mRNA (public microarray) [3]: only affected PGC1α mRNA in melanoma cell lines | ERK phosphorylation (melanoma cell lines [4]): Suppression | ES, SARCOMAS_LEIOMYOSARCOMA_CALP_UP (melanoma cell lines [5]; [7]): −0.5939 | NES, SARCOMAS_LEIOMYOSARCOMA_CALP_UP (melanoma cell lines [5]; [7]): −1.618 | ES, TIS7_OVEREXP_DN (melanoma cell lines [5]; [8]): −0.6059 | NES, TIS7_OVEREXP_DN (melanoma cell lines [5]; [8]): −1.666 | ES, ATP_SYNTHESIS (melanoma cell lines [5]; [9]): −0.5886 | ES, FLAGELLAR_ASSEMBLY (melanoma cell lines [5]; [9]): −0.5886 | ES, TYPE_III_SECRETION_SYSTEM (melanoma cell lines [5]; [9]): −0.5886 | NES, ATP_SYNTHESIS (melanoma cell lines [5]; [9]): −1.651 | NES, FLAGELLAR_ASSEMBLY (melanoma cell lines [5]; [9]): −1.651 | NES, TYPE_III_SECRETION_SYSTEM (melanoma cell lines [5]; [9]): −1.651 | ES, PHOTOSYNTHESIS (melanoma cell lines [5]; [10]): −0.5675 | NES, PHOTOSYNTHESIS (melanoma cell lines [5]; [10]): −1.596 | ES, PHENYLALANINE_METABOLISM (melanoma cell lines [5]; [11]): −0.5653 | NES, PHENYLALANINE_METABOLISM (melanoma cell lines [5]; [11]): −1.644 | ES, BRENTANI_CYTOSKELETON (melanoma cell lines [5]; [12]): −0.5522 | NES, BRENTANI_CYTOSKELETON (melanoma cell lines [5]; [12]): −1.762 | ES, LIAN_MYELOID_DIFF_GRANULE (melanoma cell lines [5]; [13]): −0.6115 | NES, LIAN_MYELOID_DIFF_GRANULE (melanoma cell lines [5]; [13]): −1.565 | ES, TYROSINE_METABOLISM (melanoma cell lines [5]; [14]): −0.5609 | NES, TYROSINE_METABOLISM (melanoma cell lines [5]; [14]): −1.668 | ES, HPV31_DN (melanoma cell lines [5]; [15]): −0.511 | NES, HPV31_DN (melanoma cell lines [5]; [15]): −1.584 | ES, GLUCONEOGENESIS (melanoma cell lines [5]; [16]): −0.455 | NES, GLUCONEOGENESIS (melanoma cell lines [5]; [16]): −1.548 | ES, OXIDATIVE_PHOSPHORYLATION (melanoma cell lines [5]; [17]): −0.5314 | NES, OXIDATIVE_PHOSPHORYLATION (melanoma cell lines [5]; [17]): −1.765 | ES, VANASSE_BCL2_TARGETS (melanoma cell lines [5]; [18]): −0.3981 | NES, VANASSE_BCL2_TARGETS (melanoma cell lines [5]; [18]): −1.55 | ES, TPA_RESIST_MIDDLE_DN (melanoma cell lines [5]; [19]): −0.3946 | NES, TPA_RESIST_MIDDLE_DN (melanoma cell lines [5]; [19]): −1.586 | citric acid cycle and oxidative phosphorylation gene sets (melanoma cell lines [5]; melanoma cells treated with PD0325901): trend towards induction | enrichment of oxidative phosphorylation or citric acid cycle gene sets ([6]; BRAF-mutant non-melanomas treated with PD0325901): no enrichment | ES, INSULIN_NIH3T3_UP [6, 20]: −0.6535 | NES, INSULIN_NIH3T3_UP [6, 20]: −1.926 | ES, ERK5PATHWAY [6, 21]: −0.4831 | ES, SCHURINGA_STAT5A_DN [6, 21]: −0.6396 | NES, ERK5PATHWAY [6, 21]: −1.639 | NES, SCHURINGA_STAT5A_DN [6, 21]: −1.67 | ES, PASSERINI_OXIDATION [6, 22]: −0.5358 | NES, PASSERINI_OXIDATION [6, 22]: −1.657 | ES, LOTEM_LEUKEMIA_UP [6, 23]: −0.6144 | ES, ST_GA12_PATHWAY [6, 23]: −0.5512 | NES, LOTEM_LEUKEMIA_UP [6, 23]: −1.935 | NES, ST_GA12_PATHWAY [6, 23]: −1.683 | ES, MPRPATHWAY [6, 24]: −0.5726 | NES, MPRPATHWAY [6, 24]: −1.724 | ES, HSA00566_ETHER_LIPID_METABOLISM [6, 25]: −0.6099 | ES, HSA00591_LINOLEIC_ACID_METABOLISM [6, 25]: −0.6262 | NES, HSA00566_ETHER_LIPID_METABOLISM [6, 25]: −1.836 | NES, HSA00591_LINOLEIC_ACID_METABOLISM [6, 25]: −1.85 | ES, HDACPATHWAY [6, 26]: −0.524 | NES, HDACPATHWAY [6, 26]: −1.695 | ES, HDACI_COLON_CLUSTER9 [6, 27]: −0.4566 | NES, HDACI_COLON_CLUSTER9 [6, 27]: −1.716 | ES, HSA00010_GLYCOLYSIS_AND_GLUCONEOGENESIS [6, 28]: −0.4307 | NES, HSA00010_GLYCOLYSIS_AND_GLUCONEOGENESIS [6, 28]: −1.651 | ES, MUNSHI_MM_UP [6, 29]: −0.4503 | NES, MUNSHI_MM_UP [6, 29]: −1.811 | ES, HSA04370_VEGF_SIGNALING_PATHWAY [6, 30]: −0.4932 | NES, HSA04370_VEGF_SIGNALING_PATHWAY [6, 30]: −1.946 | ES, HSA04664_FC_EPSILON_RI_SIGNALING_PATHWAY [6, 31]: −0.4516 | NES, HSA04664_FC_EPSILON_RI_SIGNALING_PATHWAY [6, 31]: −1.711

Cn1c(=O)c(F)c(Nc2ccc(I)cc2F)c2c(=O)n(C[C@@H](O)CO)cnc21 [TAK-733]
IC50 (MEK): 3.2 nM

CC[C@@H]1/C=C/C=C/C[C@H](C)[C@H](O)[C@](C)(O)C(=O)[C@H](C)[C@@H](O)[C@H](C)C(=O)[C@H](C)[C@@H](O)[C@H](C)/C=C/C(=O)O[C@H]2[C@@H](C)[C@@H](CC1)O[C@@]1(CC[C@@H](C)[C@@H](C[C@H](C)O)O1)[C@@H]2C [oligomycin A]
Combination Index with PLX4720 (additively enhanced the efficacy of PLX4720) (melanoma cells (M14); in vitro, cell number after 72 hrs): 0.9

CNC(=O)c1cc(Oc2ccc(NC(=O)Nc3ccc(Cl)c(C(F)(F)F)c3)cc2)ccn1 [sorafenib]
clinical responses (KIT mutated melanoma): clinical responses

CN(C)c1cc(NC(=O)CNC(C)(C)C)c(O)c2c1C[C@H]1C[C@H]3[C@H](N(C)C)C(O)=C(C(N)=O)C(=O)[C@@]3(O)C(O)=C1C2=O [tigecycline, N-[(5aR,6aS,7S,9Z,10aS)-9-[amino(hydroxy)methylidene]-4,7-bis(dimethylamino)-1,10a,12-trihydroxy-8,10,11-trioxo-5,5a,6,6a,7,8,9,10,10a,11-decahydrotetracen-2-yl]-2-(tert-butylamino)acetamide]
apoptosis induced by BRAF inhibitor PLX4720 (apoptosis): strongly potentiates apoptosis
